According to US20150239889A1, “PYRAZOLOPYRIMIDINE COMPOUND” (MITSUBISHI TANABE PHARMA CORPORATION, priority 2012, published 2015):

Legend:
Hep3B cells = assay: EPO production assay (ELISA of culture supernatant); format: cell-based; settings: Homo sapiens, 3 μmol/L test compound, 48 hours, relative to control (0.1% DMSO), read-out: EPO production stimulation rate with 3 μmol/L test compound
In short: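 Hep3B cells (40000/well) switched to MEM with 0.5% FBS and treated with compound (0.1% DMSO) for 48 h at 37 °C. Supernatant EPO measured by ELISA; value is fold stimulation at 3 μmol/L compound over unstimulated control.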

human HIF-PHD2 = target: T1, human HIF-PHD2 (Homo sapiens, UniProt Q9GZT9); assay: HIF-PHD inhibition assay (fluorescence polarization), human HIF-PHD2; format: biochemical; settings: 2-oxoglutaric acid 3.33 μmol/L
T1 construct: purchased CrystalGenomics Ltd
In short: (§1)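 Fluorescence polarization was read before and after adding enzyme, and the difference (mP value) taken as enzyme activity. The tracer carried a FAM (5′-fluoresceinamide) tag linked via aminocaproic acid.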

human HIF-PHD3 = target: T2, human HIF-PHD3 (Homo sapiens, UniProt Q9H6Z9); assay: HIF-PHD inhibition assay (fluorescence polarization), human HIF-PHD3; format: biochemical; settings: 2-oxoglutaric acid 166 μmol/L
T2 construct: purchased CrystalGenomics Ltd
In short: as §1

T1 sequence (Q9GZT9 2-426 limits assumed): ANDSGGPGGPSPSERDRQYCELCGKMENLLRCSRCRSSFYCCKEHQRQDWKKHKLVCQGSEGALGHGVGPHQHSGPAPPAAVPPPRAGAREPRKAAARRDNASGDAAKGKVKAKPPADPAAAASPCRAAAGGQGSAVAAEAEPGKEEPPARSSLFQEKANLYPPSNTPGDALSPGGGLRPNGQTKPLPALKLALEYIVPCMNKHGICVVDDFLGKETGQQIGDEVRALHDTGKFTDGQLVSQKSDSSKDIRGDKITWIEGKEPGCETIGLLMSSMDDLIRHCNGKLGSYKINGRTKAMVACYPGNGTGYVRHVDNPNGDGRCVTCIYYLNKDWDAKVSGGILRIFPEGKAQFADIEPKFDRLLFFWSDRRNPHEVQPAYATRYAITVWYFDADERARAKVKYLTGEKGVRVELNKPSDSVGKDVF
T2 sequence (Q9H6Z9 whole entry): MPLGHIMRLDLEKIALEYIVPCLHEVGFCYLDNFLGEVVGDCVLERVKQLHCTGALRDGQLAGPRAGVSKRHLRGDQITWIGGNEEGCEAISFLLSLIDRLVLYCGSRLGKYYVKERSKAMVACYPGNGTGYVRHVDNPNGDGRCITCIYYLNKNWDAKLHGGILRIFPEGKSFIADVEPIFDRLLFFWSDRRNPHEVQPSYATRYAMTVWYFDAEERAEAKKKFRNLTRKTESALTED

Structure (SMILES)	fold induction at 3 µM (Hep3B cells)	IC50 (human HIF-PHD2) [nM]	IC50 (human HIF-PHD3) [nM]
O=C(O)c1cnn(-c2nc(O)c3c(cnn3CCCOc3cccc(C(F)(F)F)c3)n2)c1 [Example 174]	9.9	32	570
Cc1ccc(O[C@H]2CC[C@H](Cn3ncc4nc(-n5cc(C(=O)O)cn5)nc(O)c43)CC2)cc1 [Example 151]	38	13	220
C[C@@H](c1ccc(C(F)(F)F)cc1)n1ncc2nc(-n3cc(C(=O)O)cn3)nc(O)c21 [Example 19]	10	26	720
O=C(O)c1cnn(-c2nc(O)c3c(cnn3Cc3ccc(-c4ccccc4)cc3F)n2)c1 [Example 78]	30	6.1	68
Cc1ccccc1-c1ccc(Cn2ncc3nc(-n4cc(C(=O)O)cn4)nc(O)c32)cc1 [Example 57]	9.1	15	130
O=C(O)c1cnn(-c2nc(O)c3c(n2)c(F)nn3C2CCCCC2)c1 [Example 478]	1.8	45	370
O=C(O)c1cnn(-c2nc(O)c3c(cnn3CC[C@H]3CC[C@H](c4ccccc4)CC3)n2)c1 [Example 163]	13	19	120
O=C(O)c1cnn(-c2nc(O)c3c(cnn3CC34CC5CC(CC(C5)C3)C4)n2)c1 [Example 381]	6.3	46	500
C[C@@H](c1ccc(Cl)c(Cl)c1)n1nc(F)c2nc(-n3cc(C(=O)O)cn3)nc(O)c21 [Example 440]	2.6	17	160
O=C(O)c1cnn(-c2nc(O)c3c(cnn3Cc3ccc(-c4ccc(C(F)(F)F)cc4)cc3)n2)c1 [Example 67]	19	10	190
O=C(O)c1cnn(-c2nc(O)c3c(n2)c(Cl)nn3CC2CCCCCC2)c1 [Example 226]	2.2	47	1400
O=C(O)c1cnn(-c2nc(O)c3c(cnn3CCOc3ccccc3)n2)c1 [Example 200]	1.4	12	1800
O=C(O)c1cnn(-c2nc(O)c3c(cnn3Cc3ccc(C4CCCCC4)cc3)n2)c1 [Example 37]	8.3	26	120
O=C(O)c1cnn(-c2nc(O)c3c(cnn3CCCOc3ccc4c(c3)CCCC4)n2)c1 [Example 188]	23	14	540
O=C(O)c1cnn(-c2nc(O)c3c(cnn3CC3Cc4ccccc4C3)n2)c1 [Example 154]	5.4	29	290
O=C(O)c1cnn(-c2nc(O)c3c(n2)c(C(F)(F)F)nn3CC2CCCCC2)c1 [Example 477]	2.5	180	830
CC(C)(Cn1ncc2nc(-n3cc(C(=O)O)cn3)nc(O)c21)Oc1cccc2ccccc12 [Example 212]	2.7	26	310
C[C@H](c1ccccc1)n1ncc2nc(-n3cc(C(=O)O)cn3)nc(O)c21 [Example 16]	3.1	66	820
Cc1ccc(OC(C)(C)Cn2ncc3nc(-n4cc(C(=O)O)cn4)nc(O)c32)c2c1CCC2 [Example 211]	8.9	26	180
O=C(O)c1cnn(-c2nc(O)c3c(cnn3Cc3ccc(Cl)cc3F)n2)c1 [Example 5]	2.9	130	740
CC(C)[C@H]1CC[C@H](Cn2ncc3nc(-n4cc(C(=O)O)cn4)nc(O)c32)CC1 [Example 141]	1.2	14	270
CCC(c1ccc(Cl)cc1)n1ncc2nc(-n3cc(C(=O)O)cn3)nc(O)c21 (single isomer, unassigned) [Example 323]	3.8	22	300
